This note sets out measurements from patent publication US20250302051A1, “COMPOSITIONS WITH NANOPLATELET OXIDES OR HYDROXIDES AND METHODS OF PREPARING AND USING SAME” (Aqua Resources Corporation, priority 2024, published 2025).

One experiment deals with B. cereus (ATCC 14579). As to the kind of experiment: Nanoplatelet composition vs antibiotic parallel test, B. cereus. Format: cell-based.
For another experiment, the system named is MRSA (S. aureus). Description: Nanoplatelet composition vs antibiotic parallel test, MRSA. The experiment is classed as cell-based, Staphylococcus aureus. On the procedure: The nanoplatelet composition achieved total mitigation of MRSA from a 7 log pathogen population (10 million bacteria per mL) to zero in 3 hours. Levoflaxin, a commonly administered antibiotic used for treating MRSA, was tested at clinical doses and is shown as the dashed line. At various concentrations, the nanoplatelet composition eliminated MRSA more completely than levoflaxin after 24 hours with no rebound.

The next experiment has as its system S. aureus (VISA). As to the kind of experiment: Nanoplatelet composition vs antibiotic parallel test, VISA. Format: cell-based.
The test system of the next experiment is CRE (K. pneumoniae). As to the kind of experiment: Nanoplatelet composition vs antibiotic parallel test, CRE K. pneumoniae. The experiment is classed as cell-based.
For a further experiment, the system named is CRE (E. coli). Description: Nanoplatelet composition vs antibiotic parallel test, CRE E. coli. Format: cell-based. To be noted: within 24 hours; colistin 2 μg/mL; FIG. 8.

`O=C(O)c1cn(C2CC2)c2cc(N3CCNCC3)c(F)cc2c1=O` [Cyproflaxin]: in the experiment with B. cereus (ATCC 14579), the “Log Kill” value is on record as 0.5 Log. Turning to `C[C@H]1COc2c(N3CCN(C)CC3)c(F)cc3c(=O)c(C(=O)O)cn1c23` [Levoflaxin], the “Log Kill” value in the experiment on MRSA (S. aureus) stood at 4.5 Log.

For the compound `CC(=O)NC[C@H]1CN(c2ccc(N3CCOCC3)c(F)c2)C(=O)O1` [Linezolid], the “Log Kill” value in the experiment on S. aureus (VISA) is recorded as 0.5 Log.

On to `CN(C)c1cc(NC(=O)CNC(C)(C)C)c(O)c2c1C[C@H]1C[C@H]3[C@H](N(C)C)C(O)=C(C(N)=O)C(=O)[C@@]3(O)C(O)=C1C2=O` [Tigecycline], for which, in the experiment on CRE (K. pneumoniae), the “Log Kill” value amounted to 8 Log and the “Time to Zero” value was determined as 24 h. On to Colistin, for which the “rebound of bacteria population” value in the experiment on CRE (E. coli) is reported as “completely rebounded”.
